According to article PMC3971658 (The Journal of General Physiology, 2014):
Marks after values point to notes of the source that are not given here. Where no end group is shown, it is not given here.

Experiments:
Assay type in all cases: cell-based
[1] = test system: Human Cav2.3c (Y1761F); settings: 50 µM
[2] = test system: Human Cav2.1 (L1852T); settings: read-out: IBa inhibition; 50 µM
[3] = test system: Human Cav2.1 (Q1856E); settings: read-out: IBa inhibition; 50 µM
[4] = test system: Human Cav2.3d (Y1761F); settings: 50 µM
[5] = test system: Human Cav2.3d (Y1765F); settings: read-out: IBa inhibition; 50 µM
[6] = test system: c-Src / human Cav2.3c channel and GABABR
[7] = test system: c-Src / human Cav2.1 channel and GABABR

Compound: NCC(CC(=O)O)c1ccc(Cl)cc1 (stereo not shown) [Baclofen, baclofen]
- IBa inhibition [1]: 14.6 ± 1.8 (8) ^c %
- inhibition [2]: 50.6%
- inhibition [3]: 47.9%
- IBa inhibition [4]: 21.9 ± 1.8 (11) ^c %
- inhibition [5]: 28.9%

Compound: pp60c-Src peptide: phosphorylated synthetic pp60c-Src peptide (521–533) (DYFTSTEPQYQPG; also: phosphorylated, site not given here; UniProt P12931 521-533, looked up, fragment)
- effect of pp60c-Src peptide on c-Vc1.1 and baclofen inhibition of IBa [6]: The effect of K295R/Y527F c-Src was recapitulated
- baclofen inhibition of IBa with wild-type c-Src overexpression or pp60c-Src peptide [7]: did not affect baclofen inhibition of IBa
